The structures appear in SMILES notation. Values after ≈ are worked out from the molar mass of the structure shown. Some results are limits rather than exact numbers.

Data set [1] in a line: Thermodynamic solubility of the compound in pH 6.8 solution. In kind it is physicochemical. As to conditions: read-out: Therm_solubility.
Data set [2] deals with T1, Tyrosine-protein kinase ITK/TSK (Homo sapiens, UniProt Q08881).
T1 sequence (Q08881 whole entry): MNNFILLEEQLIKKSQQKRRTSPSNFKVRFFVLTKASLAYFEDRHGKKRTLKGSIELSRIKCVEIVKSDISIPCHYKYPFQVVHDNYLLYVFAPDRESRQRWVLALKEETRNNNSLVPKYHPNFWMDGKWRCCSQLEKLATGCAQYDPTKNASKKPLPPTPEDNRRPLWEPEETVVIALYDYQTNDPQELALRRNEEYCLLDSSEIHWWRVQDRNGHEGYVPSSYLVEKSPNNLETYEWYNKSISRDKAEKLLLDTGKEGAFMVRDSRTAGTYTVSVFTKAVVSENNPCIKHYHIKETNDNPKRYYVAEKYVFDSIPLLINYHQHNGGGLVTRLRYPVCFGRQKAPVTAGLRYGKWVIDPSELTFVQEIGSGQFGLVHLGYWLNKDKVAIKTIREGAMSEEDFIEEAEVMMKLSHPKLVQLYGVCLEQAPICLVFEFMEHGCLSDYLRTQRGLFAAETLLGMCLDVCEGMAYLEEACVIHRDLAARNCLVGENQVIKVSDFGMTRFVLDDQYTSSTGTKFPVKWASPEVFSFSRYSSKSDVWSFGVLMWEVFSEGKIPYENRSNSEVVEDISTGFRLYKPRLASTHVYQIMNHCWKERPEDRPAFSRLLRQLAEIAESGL
Put plainly: Inhibition of recombinant full length human GST-tagged ITK expressed in baculovirus expression system.

The target in data set [3] is Rho-associated protein kinase 1 (Homo sapiens, UniProt Q13464). Put plainly: Inhibition of recombinant human GST-tagged ROCK1 catalytic domain expressed in baculovirus expression system.
Another data set addresses CYP3A4 (Homo sapiens, UniProt P08684). Description: Inhibition of CYP3A4 (unknown origin) at 10 uM relative to control. The class given is ADME.
Data set [4] in a line: Intrinsic clearance in human liver microsomes. As to conditions: read-out: CLH. The class given is ADME, microsome.
For data set [5], the target named is Epidermal growth factor receptor (Homo sapiens, UniProt P00533). Put plainly: Inhibition of recombinant human GST-tagged EGFR cytoplasmic domain (668 to 1210 residues) expressed in baculovirus expression system.
The target in data set [6] is T2, Mitogen-activated protein kinase kinase kinase 5 (Homo sapiens, UniProt Q99683).
T2 sequence (Q99683 whole entry): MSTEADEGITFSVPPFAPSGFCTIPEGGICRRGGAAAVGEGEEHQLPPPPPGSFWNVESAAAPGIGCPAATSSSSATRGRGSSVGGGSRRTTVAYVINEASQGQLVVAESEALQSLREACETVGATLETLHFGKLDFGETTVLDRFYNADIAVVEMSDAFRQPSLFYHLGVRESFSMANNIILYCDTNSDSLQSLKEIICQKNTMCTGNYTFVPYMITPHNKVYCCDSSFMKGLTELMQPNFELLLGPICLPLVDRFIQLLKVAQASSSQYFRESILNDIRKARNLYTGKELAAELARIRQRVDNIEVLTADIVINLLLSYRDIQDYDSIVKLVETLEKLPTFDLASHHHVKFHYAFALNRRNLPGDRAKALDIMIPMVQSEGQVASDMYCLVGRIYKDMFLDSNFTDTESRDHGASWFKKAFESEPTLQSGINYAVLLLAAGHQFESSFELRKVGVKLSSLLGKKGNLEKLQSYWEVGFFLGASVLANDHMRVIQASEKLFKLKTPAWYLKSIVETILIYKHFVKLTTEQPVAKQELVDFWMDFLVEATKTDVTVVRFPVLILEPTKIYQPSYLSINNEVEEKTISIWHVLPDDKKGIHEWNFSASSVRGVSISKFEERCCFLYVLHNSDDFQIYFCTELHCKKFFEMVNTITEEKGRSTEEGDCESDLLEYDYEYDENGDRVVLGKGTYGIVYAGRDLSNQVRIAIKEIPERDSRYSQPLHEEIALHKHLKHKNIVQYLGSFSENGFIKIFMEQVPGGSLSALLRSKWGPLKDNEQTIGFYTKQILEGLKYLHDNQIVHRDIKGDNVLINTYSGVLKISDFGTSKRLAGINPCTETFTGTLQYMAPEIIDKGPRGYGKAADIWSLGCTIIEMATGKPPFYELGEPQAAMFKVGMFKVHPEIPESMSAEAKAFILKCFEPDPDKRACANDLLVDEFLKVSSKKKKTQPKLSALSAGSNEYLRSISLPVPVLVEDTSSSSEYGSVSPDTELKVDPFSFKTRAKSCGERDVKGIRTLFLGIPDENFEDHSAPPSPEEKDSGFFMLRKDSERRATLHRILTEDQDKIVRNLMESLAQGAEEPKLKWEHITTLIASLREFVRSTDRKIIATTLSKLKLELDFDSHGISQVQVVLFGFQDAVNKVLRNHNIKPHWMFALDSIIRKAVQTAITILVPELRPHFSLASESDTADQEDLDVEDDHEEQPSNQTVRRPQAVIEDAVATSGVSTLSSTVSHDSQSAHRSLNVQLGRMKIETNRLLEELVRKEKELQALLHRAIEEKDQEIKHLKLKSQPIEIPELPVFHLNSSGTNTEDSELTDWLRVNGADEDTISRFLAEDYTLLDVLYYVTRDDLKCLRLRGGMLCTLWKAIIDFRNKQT
Description: Inhibition of ASK1 (unknown origin) assessed as reduction in JNK phosphorylation by cell based assay.

For data set [7], the target named is T2, Mitogen-activated protein kinase kinase kinase 5. Put plainly: Inhibition of ASK1 (unknown origin) using biotin-MBP as substrate after 20 mins by TR-FRET assay.

CYP3A4, sequence (P08684 whole entry): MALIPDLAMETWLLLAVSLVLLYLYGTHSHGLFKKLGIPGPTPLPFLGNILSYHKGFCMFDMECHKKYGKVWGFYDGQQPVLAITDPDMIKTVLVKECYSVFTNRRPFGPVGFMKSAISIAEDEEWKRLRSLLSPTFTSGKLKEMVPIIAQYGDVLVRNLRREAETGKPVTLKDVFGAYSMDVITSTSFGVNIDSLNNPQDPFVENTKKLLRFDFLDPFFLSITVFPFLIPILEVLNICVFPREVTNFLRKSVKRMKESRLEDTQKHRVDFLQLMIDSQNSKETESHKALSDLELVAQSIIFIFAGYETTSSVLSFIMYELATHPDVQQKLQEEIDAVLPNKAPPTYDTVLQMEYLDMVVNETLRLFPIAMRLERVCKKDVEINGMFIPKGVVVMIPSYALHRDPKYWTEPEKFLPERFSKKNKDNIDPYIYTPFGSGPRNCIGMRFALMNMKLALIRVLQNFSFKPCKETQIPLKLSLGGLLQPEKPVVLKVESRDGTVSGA
Epidermal growth factor receptor, sequence (P00533 whole entry, the tested form may be a part): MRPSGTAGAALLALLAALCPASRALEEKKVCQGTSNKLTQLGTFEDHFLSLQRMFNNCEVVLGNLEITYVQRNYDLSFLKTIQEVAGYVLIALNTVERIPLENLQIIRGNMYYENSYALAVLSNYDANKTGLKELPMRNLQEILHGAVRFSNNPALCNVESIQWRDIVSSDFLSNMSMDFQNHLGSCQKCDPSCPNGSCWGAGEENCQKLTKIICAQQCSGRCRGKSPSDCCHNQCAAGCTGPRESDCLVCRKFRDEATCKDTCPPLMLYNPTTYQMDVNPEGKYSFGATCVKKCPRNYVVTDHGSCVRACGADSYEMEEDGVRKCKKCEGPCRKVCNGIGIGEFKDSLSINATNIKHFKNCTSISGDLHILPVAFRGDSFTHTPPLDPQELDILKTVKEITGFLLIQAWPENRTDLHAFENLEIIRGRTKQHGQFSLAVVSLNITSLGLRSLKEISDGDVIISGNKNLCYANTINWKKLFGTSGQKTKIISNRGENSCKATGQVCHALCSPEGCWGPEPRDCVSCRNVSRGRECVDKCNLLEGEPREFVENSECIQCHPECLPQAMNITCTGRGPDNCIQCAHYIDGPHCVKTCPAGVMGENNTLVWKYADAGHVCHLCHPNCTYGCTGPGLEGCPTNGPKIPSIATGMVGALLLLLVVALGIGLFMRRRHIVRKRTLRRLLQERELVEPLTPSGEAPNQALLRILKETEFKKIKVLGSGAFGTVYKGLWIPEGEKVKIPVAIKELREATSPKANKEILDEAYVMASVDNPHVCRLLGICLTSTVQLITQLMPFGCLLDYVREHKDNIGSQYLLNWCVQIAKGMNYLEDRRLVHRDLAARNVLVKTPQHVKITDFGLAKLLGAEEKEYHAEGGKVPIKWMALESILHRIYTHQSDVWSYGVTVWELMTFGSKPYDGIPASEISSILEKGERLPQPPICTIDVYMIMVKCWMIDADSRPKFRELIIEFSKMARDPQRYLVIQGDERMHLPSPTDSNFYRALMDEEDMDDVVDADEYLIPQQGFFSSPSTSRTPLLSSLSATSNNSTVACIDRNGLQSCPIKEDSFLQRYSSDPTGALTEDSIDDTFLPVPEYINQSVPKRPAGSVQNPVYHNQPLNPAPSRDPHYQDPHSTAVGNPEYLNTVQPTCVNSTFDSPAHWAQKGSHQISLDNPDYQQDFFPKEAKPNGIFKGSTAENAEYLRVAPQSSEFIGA
Rho-associated protein kinase 1, sequence (Q13464 whole entry, the tested form may be a part): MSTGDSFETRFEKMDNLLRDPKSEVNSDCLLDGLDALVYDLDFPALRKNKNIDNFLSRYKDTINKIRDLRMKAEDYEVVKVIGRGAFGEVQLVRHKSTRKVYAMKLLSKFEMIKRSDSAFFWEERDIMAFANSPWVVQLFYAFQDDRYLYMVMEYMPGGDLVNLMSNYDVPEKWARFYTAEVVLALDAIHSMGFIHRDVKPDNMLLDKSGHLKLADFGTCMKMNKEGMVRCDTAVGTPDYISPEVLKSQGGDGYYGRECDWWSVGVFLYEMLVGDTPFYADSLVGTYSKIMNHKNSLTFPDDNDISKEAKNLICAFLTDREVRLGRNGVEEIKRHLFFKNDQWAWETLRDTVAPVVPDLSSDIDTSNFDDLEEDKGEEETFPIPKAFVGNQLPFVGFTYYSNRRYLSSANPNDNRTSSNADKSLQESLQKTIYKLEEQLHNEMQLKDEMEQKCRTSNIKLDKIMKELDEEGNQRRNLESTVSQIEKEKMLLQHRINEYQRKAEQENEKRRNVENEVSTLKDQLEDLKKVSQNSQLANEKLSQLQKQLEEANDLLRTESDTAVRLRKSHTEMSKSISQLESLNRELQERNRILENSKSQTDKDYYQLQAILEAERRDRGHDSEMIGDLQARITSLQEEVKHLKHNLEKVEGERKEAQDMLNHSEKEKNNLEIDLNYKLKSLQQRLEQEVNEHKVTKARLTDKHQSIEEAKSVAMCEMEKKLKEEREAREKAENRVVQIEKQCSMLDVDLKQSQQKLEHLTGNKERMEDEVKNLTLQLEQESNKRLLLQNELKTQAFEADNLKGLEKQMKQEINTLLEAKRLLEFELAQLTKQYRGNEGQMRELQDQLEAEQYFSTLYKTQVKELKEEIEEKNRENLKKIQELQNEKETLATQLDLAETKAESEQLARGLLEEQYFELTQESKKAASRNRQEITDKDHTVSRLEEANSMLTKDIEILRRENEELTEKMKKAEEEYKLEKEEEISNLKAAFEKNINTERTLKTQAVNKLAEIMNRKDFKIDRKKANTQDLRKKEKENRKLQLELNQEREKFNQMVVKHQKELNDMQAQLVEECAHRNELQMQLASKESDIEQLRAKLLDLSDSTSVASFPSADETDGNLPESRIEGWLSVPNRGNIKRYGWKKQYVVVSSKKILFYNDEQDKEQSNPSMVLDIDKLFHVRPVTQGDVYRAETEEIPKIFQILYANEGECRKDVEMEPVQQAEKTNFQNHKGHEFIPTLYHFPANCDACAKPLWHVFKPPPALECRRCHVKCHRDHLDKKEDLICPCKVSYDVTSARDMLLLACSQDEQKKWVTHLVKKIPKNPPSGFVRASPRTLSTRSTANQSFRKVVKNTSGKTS

One may read the IC50 as the point on the concentration scale where inhibition reaches its midpoint. As a reminder, the inhibition is how much of the control response was suppressed. A higher inhibition goes with strong suppression. What is called EC50 is the concentration that produces a half-maximal response. Consider `COCCn1cc(NC(=O)c2csc(-c3nncn3C(C)C)n2)cn1`, for which the solubility thermodynamic in data set [1] is 208 µM (≈ 75.2 µg/mL). In addition, the IC50 is more than 20000 nM in data set [2], 5370 nM in data set [3], more than 20000 nM in data set [5] and 60 nM in data set [7]. Further, at CYP3A4, 10 µM produced 30% inhibition. Also, the CLint scaled in data set [4] came out at 8.8 mL/min/kg. In addition, the concentration for a half-maximal effect (EC50) in data set [6] turned out to be 60 nM.

Source of the values: ChEMBL document CHEMBL4007491, “Structure-based drug design of novel ASK1 inhibitors using an integrated lead optimization strategy” (Bioorg Med Chem Lett, 2017).
